Experimental findings from patent US11565003B2, “Mechanical opening of lipid bilayers by molecular nanomachines” (William Marsh Rice University, priority 2016, dated 2023) are described below.

SMILES strings stand for the structures. Starred links: 1 amine or outer side, 2 acyl side, 3 side chain; linkers in the order of their positions; H or OH if unused. Positions of bridges follow the written chain, without caps; N, C: chain ends. Residues, ends and D or L forms follow the SMILES beside them. Chains are numbered I, II in the order given. X2 = C[C@@H]1Cc2ccc3ccccc3c2C1=C1c2cc(C#CCCn3cc(C(=O)[*:1])nn3)ccc2Sc2ccc(C#CCCn3cc(C(=O)[*:2])nn3)cc21

The subject of series [1] is PC-3 cells. The series can be described thus: Two-photon near-infra red activation, PI dye entry, PC-3. The settings on record: PC-3, 1 μM, PI 200 nM. The class given is cell-based, human. On the procedure: Two-photon microscopy studies of NIH 3T3 cells were executed on a Nikon E600 upright confocal microscope coupled to a tuneable (710-950 nm Coherent MaiTai) multiphoton source operating at (20%) 240 mW power using a 166 lps scan speed and 128×128 pixel frame resolution for MP-illumination. Images (512×512 pixel, 166 lps) were recorded using a 543 nm (1 mW HeNe) laser combined with a 560 nm long-pass filter to record PI (200 nM) fluorescence and follow the onset of induced necrosis.
Two photon live cell microscopy studies were also executed on a Nikon E600 upright confocal microscope coupled to a tuneable (710-950 nm Coherent MaiTai) multiphoton source operating at (19.8%) 240 mW power at 720 nm using 166 lines/sec scan speed and 128×128 pixel frame resolution for MP-illumination. An oil immersion Nikon IR objective (×60/1.4 NA) was used. Images (512×512 pixel, 166 l/s) were recorded using a 543 nm (1 mW HeNe) laser combined with a 570 nm long-pass filter to record PI dyes (200 nM). Fluorescence was measured as 2 frame averaged images in order to follow the onset of induced necrosis. Necrosis times have been assigned to detectable PI signals in the nucleolus.

In series [2] the test system is NIH 3T3 cells. The series can be described thus: UV-activated nanomechanical necrosis, live cell confocal microscopy, NIH 3T3. The class given is cell-based, mouse. The settings on record: for Time of Full Necrosis / Time of Initial Necrosis / % acceleration for full necrosis: 355 nm UV; for % acceleration for full necrosis: versus UV upon blank cells.
Series [3] concerns CHO cells. The experiment in a line: UV-activated nanomechanical necrosis, live cell confocal microscopy, CHO. The class given is cell-based, Chinese hamster. The settings on record: 355 nm UV; for % acceleration for full necrosis: versus UV upon blank cells. On the procedure: Following the synthetic bilipid vesicle experiments, nanomechanical action upon live cells was studied using confocal microscopy aided by a super-resolution technique called Phase Modulation Nanoscopy. Applicants used two experimental methods. In the first method (Method A), the molecular motors were loaded into the cell media and the imaging was initiated within 5 minutes to 24 hours. In the second method, (Method B), the molecular motors were loaded into the cell media, incubated for 30 minutes to 24 hours, and then washed three times with fresh molecular motor-free media before imaging. […]
Microscopy cells were seeded in untreated iBibi 100 μL live cell channels and allowed to grow to 40% to 60% confluence, at 37° C. in 5% CO2. At this stage, the medium was replaced and cells were treated with the studied nanomachines and co-stains as appropriate, with 0.1% DMSO (as detailed above) present in the final imaging medium. For live cell imaging, DMEM/F12 media (10% FBS) lacking phenol red was used from this point onwards. Following incubation, where Method B was used, the channels were washed with live cell imaging media and imaged using a purpose build incubator housing the microscope maintaining 37° C., 5% CO2 and 10% humidity.
All live cell imaging experiments used either NIH 3T3 mouse skin fibroblast cells, PC-3 cells, a grade 3 human prostate adenocarcinoma, or Chinese hamster ovary cells (CHO). These are all well-studied cell lines with discrete morphological compositions. Each molecular machine was used as a stock solution at 0.10 to 1.00 μM with total dimethyl sulfoxide (DMSO) concentrations not exceeding 0.1% in the final cell media in order to avoid unwanted cell membrane permeabilization, the DMSO being required for solubility of the organic nanomachines. All loading experiments are carried out in a light-suppressed manner and the possibility of induced or accelerated uptake due to interaction between the molecular motors and the applied co-stain has been eliminated using a series of individual and reversed loading experiments.
All experimental imaging parameters (i.e., laser beam size, confocal pinhole size, laser intensity, line scanning speed, scanning area (field of view, FOV), and line averaging sequences) were kept constant throughout the experiments. The accuracy and errors associated with the establishment of accelerated necrosis are determined based on one dual channel imaging sequence, which takes 15 seconds in total. This imaging sequence has been carefully established using untreated live cells.
Steady state fluorescence images were recorded using a PhMoNa enhanced Leica SP5 II LSCM equipped with a HCX PL APO 63×/1.40 NA LambdaBlue Oil immersion objective. As an initial control experiment to establish the UV-induced cell toxicity threshold, while mitigating voxel exposure and ensuring sufficient laser dwell time, an imaging sequence has been established to monitor cell morphological and physiological changes as a function of time. All experiments used cell-line-determined culture medium containing 0.1% DMSO.
The applied 100 Hz detection sequence was based on a bidirectional dual-channel continuous scanning method where a minimalistic non-damaging visible laser light (458 nm, 0.2 mW) is used in conjunction with the above detailed UV exposure. This is set as a 2 line/scan accumulation parallel acquisition sequence that is recorded as a function of time. Studied channels correspond to transmission images and UV-induced mitochondrial auto-fluorescence detected at 460 to 550 nm. Applicants further confirmed that the effectiveness of monitoring the UV-activated nanomechanical action on live cells using a conventional CW mercury-arc excitation source equipped with an epi-fluorescence setup consisting of a Zeiss Axiovert 200M inverted microscope, as discussed in FIGS. 18A-C. […]

The subject of series [4] is PC-3 cells. The series can be described thus: UV-activated nanomechanical necrosis, live cell confocal microscopy, PC-3. The class given is cell-based, human. The settings on record: for Time of Full Necrosis / Time of Initial Necrosis / % acceleration for full necrosis: 355 nm UV; for % acceleration for full necrosis: versus UV upon blank cells.
Where [5] appears, read: NIH 3T3, Method B (washed three times).
The mark [6] stands for this setting: PC-3, Method B (washed three times).

As to `CC(C)[C@H](NC(=O)[C@H](CCCNC(=N)N)NC(=O)[C@@H](NC(=O)[C@H](CC(N)=O)NC(=O)[C@H](CO)NC(=O)c1cn(CCC#Cc2ccc3c(c2)C(=C2c4c(ccc5ccccc45)C[C@H]2C)c2cc(C#CCCn4cc(C(=O)N[C@@H](CO)C(=O)N[C@@H](CC(N)=O)C(=O)N[C@H](C(=O)N[C@@H](CCCNC(=N)N)C(=O)N[C@H](C(=O)N[C@@H](C)C(=O)N5CCC[C@H]5C(=O)O)C(C)C)[C@@H](C)O)nn4)ccc2S3)nn1)[C@@H](C)O)C(=O)N[C@@H](C)C(=O)N1CCC[C@H]1C(=O)O` [Compound 9] (I: SNTRVAP-OH / II: SNTRVAP-OH; linker I:N-II:N via X2), the “PI dye entry upon two-photon near-infra red illumination (in words)” value in series [1] is “resulting in Propidium Iodide (PI) dyes entering”. In addition, the “Time of Full Necrosis” value in series [2] (NIH 3T3, Method A (no washing)) came out at 570 s; in series [2] (setting [5]), 600 s; in series [3] (Method A (no washing)), 585 s; in series [3] (Method B (washed three times)), 570 s; in series [4] (PC-3, Method A (no washing)), 360 s; in series [4] (setting [6]), 390 s. Also, the “Time of Initial Necrosis” value in series [2] (NIH 3T3, Method A (no washing)) is 300 s; in series [2] (setting [5]), 300 s; in series [3] (Method A (no washing)) it was 300 s; in series [3] (Method B (washed three times)), 285 s; in series [4] (PC-3, Method A (no washing)), 150 s; in series [4] (setting [6]) it was 180 s. Further, the “% acceleration for full necrosis” value is recorded as 5% in series [2] (NIH 3T3, Method A); 0% in series [2] (NIH 3T3, Method B); 2.5% in series [3] (Method A); 5% in series [3] (Method B); 40% in series [4] (PC-3, Method A); 35% in series [4] (PC-3, Method B). Moreover, the “UV-accelerated nanomechanical necrosis after 24 hours incubation (in words)” value in series [2] (NIH 3T3, incubated 24 hours) is “no change in rates”. In series [4] (NIH 3T3 and CHO as non-targeted controls), the “selectivity for targeted PC-3 cells over non-targeted control cells (in words)” value is given as “selectively target the PC-3 cell line over CHO cells”. Also, in series [4] (PC-3, incubated 30 minutes to 4 hours, washed three times, 24 hours rotor free media), the “accelerated necrosis upon UV-activation after washing and further 24 hours in rotor free media” value is 25%.
